These results are taken from US6844345B2, “Piperazine derivatives” (priority 2001, dated 2005).

Data set [1] concerns the target T1, 5-HT2C receptor (Homo sapiens, UniProt P28335).
T1 sequence (P28335 33-458): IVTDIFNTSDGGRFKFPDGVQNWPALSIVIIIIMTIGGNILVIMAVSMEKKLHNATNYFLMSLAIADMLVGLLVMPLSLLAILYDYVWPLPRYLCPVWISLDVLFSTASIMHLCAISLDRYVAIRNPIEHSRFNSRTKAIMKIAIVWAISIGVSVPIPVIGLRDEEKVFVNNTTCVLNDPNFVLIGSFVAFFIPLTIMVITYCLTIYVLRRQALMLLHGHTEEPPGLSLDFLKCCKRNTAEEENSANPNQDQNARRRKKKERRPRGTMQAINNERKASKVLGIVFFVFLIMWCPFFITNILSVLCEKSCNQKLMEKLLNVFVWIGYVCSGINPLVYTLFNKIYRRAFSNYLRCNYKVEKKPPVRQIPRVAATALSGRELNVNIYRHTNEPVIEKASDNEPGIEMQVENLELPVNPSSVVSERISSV
Description: Functional activity, FLIPR calcium assay in CHO cells expressing human 5-HT2C. On the set-up: expressed in transfected cells; host or cells: CHO cells. To be noted: for h5-HT2c Relative Efficacy: maximum fluorescent signal relative to 10 μM 5-HT (defined as 100%). It counts as cell-based. The procedure:
(§1) The functional activity of compounds of formula (I) was assayed using a Fluorimetric Imaging Plate reader (FLIPR). CHO cells expressing the human 5-HT2C or human 5-HT2A receptors were counted and plated into standard 96 well microtitre plates on the day before testing to give a confluent monolayer. The cells were then dye loaded with the calcium sensitive dye, Fluo-3-AM. Unincorporated dye was removed using an automated cell washer to leave a total volume of 100 μL/well of assay buffer (Hanks balanced salt solution containing 20 mM Hepes and 2.5 mM probenecid). The drug (dissolved in 50 μL of the assay buffer) was added at a rate of 70 μL/sec to each well of the FLIPR 96 well plate during fluorescence measurements. The measurements were taken at 1 sec intervals and the maximum fluorescent signal was measured (approx. 10-15 secs after drug addition) and compared with the response produced by 10 μM 5-HT (defined as 100%) to which it was expressed as a percentage response (relative efficacy). Dose response curves were constructed using Graphpad Prism (Graph Software Inc.).

In data set [2] the target is T2, 5-HT2A receptor (Homo sapiens, UniProt P28223). Description: Functional activity, FLIPR calcium assay in CHO cells expressing human 5-HT2A. It counts as cell-based. As to conditions: for h5-HT2A Relative Efficacy: maximum fluorescent signal relative to 10 μM 5-HT (defined as 100%). Also noted: expressed in transfected cells; host or cells: CHO cells. The procedure: as §1

A further data set deals with T3, human 5-HT2B receptors (Homo sapiens, UniProt P41595).
T3 construct: expressed in transfected cells; host or cells: CHO cell line
Description: Binding to 5-HT2B receptor, [3H]-5-HT radioligand, Method (b). To be noted: human receptor in CHO cell line, read-out: Ki (2B). The procedure:
(§2) The binding of compounds of formula (I) to serotonin receptors was determined in vitro by standard methods. The preparations were investigated in accordance with the assays given hereinafter.
Method (b): For the binding to the 5-HT2B receptor the 5-HT2B receptors were radiolabeled with [^3H]-5-HT. The affinity of the compounds for human 5-HT2B receptors in a CHO cell line was determined according to the procedure of K. Schmuck, C. Ullmer, P. Engels and H. Lubbert, FEBS Lett., 1994, 342, 85-90.

Data set [3] has as its target T1, 5-HT2C receptor. As to the kind of experiment: Binding to 5-HT2C receptor, [3H]-5-HT radioligand, Method (a). As to conditions: CHO cell line, read-out: Ki (2C). On the set-up: expressed in transfected cells; host or cells: CHO cell line. The procedure: as §2
Method (a): For the binding to the 5-HT2C receptor the 5-HT2C receptors were radiolabeled with [^3H]-5-HT. The affinity of the compounds for 5-HT2C receptors in a CHO cell line was determined according to the procedure of D. Hoyer, G. Engel and H. O. Kalkman, European J. Pharmacol., 1985, 118, 13-23.

Data set [4] deals with T2, 5-HT2A receptor. Description: Binding to 5-HT2A receptor, [125I]-DOI radioligand, Method (c). On the set-up: expressed in transfected cells; host or cells: CHO cell line. As to conditions: CHO cell line, read-out: Ki (2A). The procedure: as §2
Method (c): For the binding to the 5-HT2A receptor the 5-HT2A receptors were radiolabeled with [^125I]-DOI. The affinity of the compounds for 5-HT2A receptors in a CHO cell line was determined according to the procedure of D. J. McKenna and S. J. Peroutka, J. Neurosci., 1989, 9, 3482-90.

Where [5] appears, read: FLIPR, CHO cells, Fluo-3-AM, read-out: h5-HT2c EC50.
[6] abbreviates: FLIPR, CHO cells, Fluo-3-AM, read-out: h5-HT2A EC50.

Read-outs that look alike come from different tables or passages of the source.

T2 sequence (P28223 whole entry): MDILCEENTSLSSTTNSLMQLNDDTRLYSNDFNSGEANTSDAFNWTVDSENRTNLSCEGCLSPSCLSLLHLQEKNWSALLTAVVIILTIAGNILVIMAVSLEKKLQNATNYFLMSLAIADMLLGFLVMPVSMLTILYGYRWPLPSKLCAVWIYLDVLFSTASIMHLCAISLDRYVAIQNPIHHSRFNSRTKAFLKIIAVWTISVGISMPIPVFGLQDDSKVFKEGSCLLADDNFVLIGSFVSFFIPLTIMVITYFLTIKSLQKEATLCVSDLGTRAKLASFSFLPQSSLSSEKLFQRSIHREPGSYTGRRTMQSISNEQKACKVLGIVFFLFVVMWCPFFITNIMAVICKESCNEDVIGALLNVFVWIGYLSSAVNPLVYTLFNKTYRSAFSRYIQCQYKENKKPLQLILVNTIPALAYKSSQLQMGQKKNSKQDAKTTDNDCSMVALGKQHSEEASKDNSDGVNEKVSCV
T3 sequence (P41595 whole entry): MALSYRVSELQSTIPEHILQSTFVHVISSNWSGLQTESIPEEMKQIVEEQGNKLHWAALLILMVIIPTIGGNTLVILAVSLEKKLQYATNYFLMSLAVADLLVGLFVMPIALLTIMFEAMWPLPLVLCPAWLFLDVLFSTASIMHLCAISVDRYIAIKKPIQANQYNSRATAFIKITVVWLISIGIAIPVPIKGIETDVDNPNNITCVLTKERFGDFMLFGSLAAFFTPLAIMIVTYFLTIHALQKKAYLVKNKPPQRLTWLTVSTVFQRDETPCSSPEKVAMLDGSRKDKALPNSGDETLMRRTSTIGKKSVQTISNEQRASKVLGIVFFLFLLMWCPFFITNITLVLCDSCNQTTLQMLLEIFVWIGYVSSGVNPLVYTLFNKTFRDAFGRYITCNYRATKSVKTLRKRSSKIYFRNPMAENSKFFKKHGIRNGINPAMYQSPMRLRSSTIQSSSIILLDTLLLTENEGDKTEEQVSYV

For the compound `Cc1c2n(c3c(C)c(Cl)ccc13)[C@H](C)CNC2.O=C(O)C(=O)O` [Example 14, (R)-7-Chloro-4,6,10-trimethyl-1,2,3,4-tetrahydro-pyrazino[1,2-a]indole oxalate], the EC50 (usually the concentration needed to bring the measured effect to its halfway point) at 5-HT2C receptor [1] (setting [5]) is 0.4 nM; on 5-HT2A receptor [2] (setting [6]), 536 nM. Moreover, the “h5-HT2c Relative Efficacy” value at 5-HT2C receptor [1] stood at 88%. The “h5-HT2A Relative Efficacy” value on 5-HT2A receptor [2] amounted to 34%.
On to `C[C@@H]1CNCc2cc3ccc(Cl)cc3n21` [Example 20, (R)-7-Chloro-4-methyl-1,2,3,4-tetrahydro-pyrazino[1,2-a]indole], for which the inhibition constant (Ki) (usually a measure of affinity in units of concentration, obtained from inhibition or displacement) on human 5-HT2B receptors was determined as 44 nM; at 5-HT2C receptor [3], 2.8 nM; at 5-HT2A receptor [4], 23 nM. Further, the values for the 50% effective concentration (EC50) on 5-HT2C receptor [1] (setting [5]) and on 5-HT2A receptor [2] (setting [6]) were 7 nM and 163 nM, respectively. The “h5-HT2c Relative Efficacy” value on 5-HT2C receptor [1] was 91%. Further, the “h5-HT2A Relative Efficacy” value at 5-HT2A receptor [2] is given as 49%.
In the case of `Cc1cc2c(cc1Br)cc1n2[C@H](C)CNC1.Cl`, the melting point (as a rule, the temperature of the solid-liquid transition) was 241 °C (dec.).
Consider `CCc1cccc2cc3n(c12)[C@H](C)CNC3` [Example 1, (R)-6-Ethyl-4-methyl-1,2,3,4-tetrahydro-pyrazino[1,2-a]indole], for which the Ki at human 5-HT2B receptors is 86 nM; on 5-HT2C receptor [3], 5 nM; on 5-HT2A receptor [4], 205 nM. The EC50 on 5-HT2C receptor [1] (setting [5]) stood at 22 nM; at 5-HT2A receptor [2] (setting [6]), 640 nM. Further, at 5-HT2C receptor [1], the “h5-HT2c Relative Efficacy” value amounted to 83%. Besides, the “h5-HT2A Relative Efficacy” value at 5-HT2A receptor [2] was 23%.
As to `Cc1ccc(C)c2c1cc1n2[C@H](C)CNC1` [Example 21, (R)-4,6,9-Trimethyl-1,2,3,4-tetrahydro-pyrazino[1,2-a]indole], at 5-HT2C receptor [1], the EC50 amounted to 5 nM and the “h5-HT2c Relative Efficacy” value is on record as 80%. Further, at 5-HT2A receptor [2], the concentration for a half-maximal effect (EC50) worked out at 121 nM and the “h5-HT2A Relative Efficacy” value turned out to be 76%.
`Cc1ccc2cc3n(c2c1)[C@H](C)CNC3.Cl`: the melting point is 245 °C (dec.).
`C[C@@H]1CNCc2cc3cc(Br)c(F)cc3n21.Cl` registered a melting point of 232 °C.
`C[C@@H]1CNCc2cc3ccc(C(F)(F)F)cc3n21` [Example 2, (R)-4-Methyl-7-trifluoromethyl-1,2,3,4-tetrahydro-pyrazino[1,2-a]indole] registered a melting point of 123 to 125 °C.
On the same count and under the same terms, the figure for `C[C@@H]1CNCc2cc3cccc(OC(F)(F)F)c3n21` [Example 17, (R)-4-Methyl-6-trifluoromethoxy-1,2,3,4-tetrahydro-pyrazino[1,2-a]indole] is 58 to 60 °C; for `C[C@@H]1CNCc2cc3c(Cl)cccc3n21.Cl` it is 234 to 237 °C (dec.).
